The values that follow come from ChEMBL document CHEMBL4017512 (J Med Chem, 2017).

Structures are written as SMILES. Some results are limits rather than exact numbers.

One experiment has as its system L1210. Briefly: Antiproliferative activity against mouse L1210 cells after 72 hrs by phosphatase assay. The format is functional, cell-based. To be noted: L1210, 72 h.
Experiment [1] can be described thus: Cytotoxicity against human HCT116/VM46 cells assessed as reduction in cell viability after 72 hrs by phosphatase assay. The format is cell-based. To be noted: HCT-116/VM46, 72 h.
Another experiment deals with HCT-116. In words: Antiproliferative activity against human HCT116 cells after 72 hrs by phosphatase assay. The format is functional, cell-based. To be noted: HCT-116, 72 h.

As a reminder, the IC50 is the concentration that inhibits the measured activity by half.

For `CC[C@]1(NC(=O)c2ccc3scnc3c2)C[C@H]2CN(CCc3c([nH]c4ccccc34)[C@@](C(=O)OC)(c3cc4c(cc3OC)N(C)[C@H]3[C@@](O)(C(=O)OC)[C@H](OC(C)=O)[C@]5(CC)C=CCN6CC[C@]43[C@@H]65)C2)C1`, the IC50 stood at 0.6 nM in the experiment on L1210, 25 nM in experiment [1] and 0.7 nM in the experiment with HCT-116.
In the same order, the values of `CC[C@]1(NC(=O)c2cc(C)c(OCc3ccccc3)c(C)c2)C[C@H]2CN(CCc3c([nH]c4ccccc34)[C@@](C(=O)OC)(c3cc4c(cc3OC)N(C)[C@H]3[C@@](O)(C(=O)OC)[C@H](OC(C)=O)[C@]5(CC)C=CCN6CC[C@]43[C@@H]65)C2)C1` are 30 nM, 80 nM and 30 nM.
In the same order, the values of `CC[C@]1(NC(=O)c2ccc(OC(F)(F)F)c(OC)c2)C[C@H]2CN(CCc3c([nH]c4ccccc34)[C@@](C(=O)OC)(c3cc4c(cc3OC)N(C)[C@H]3[C@@](O)(C(=O)OC)[C@H](OC(C)=O)[C@]5(CC)C=CCN6CC[C@]43[C@@H]65)C2)C1` are 1.3 nM, 6.9 nM and 1.7 nM.
The matching figures for `CC[C@]1(NC(=O)c2ccc(Cl)c(Cl)c2)C[C@H]2CN(CCc3c([nH]c4ccccc34)[C@@](C(=O)OC)(c3cc4c(cc3OC)N(C)[C@H]3[C@@](O)(C(=O)OC)[C@H](OC(C)=O)[C@]5(CC)C=CCN6CC[C@]43[C@@H]65)C2)C1`: 8.5 nM, 80 nM and 8.7 nM.
For `CC[C@]1(NC(=O)c2csc3ccccc23)C[C@H]2CN(CCc3c([nH]c4ccccc34)[C@@](C(=O)OC)(c3cc4c(cc3OC)N(C)[C@H]3[C@@](O)(C(=O)OC)[C@H](OC(C)=O)[C@]5(CC)C=CCN6CC[C@]43[C@@H]65)C2)C1`, the IC50 with L1210 was determined as 5.2 nM; in experiment [1], 20 nM; in the experiment with HCT-116, 5.7 nM.
As to `CC[C@]1(NS(=O)(=O)c2ccccc2)C[C@H]2CN(CCc3c([nH]c4ccccc34)[C@@](C(=O)OC)(c3cc4c(cc3OC)N(C)[C@H]3[C@@](O)(C(=O)OC)[C@H](OC(C)=O)[C@]5(CC)C=CCN6CC[C@]43[C@@H]65)C2)C1`, the IC50 in the experiment with L1210 turned out to be 45 nM; in experiment [1], 680 nM; in the experiment with HCT-116, 50 nM.
The matching figures for `CC[C@]1(NC(=O)c2cccc(Br)c2)C[C@H]2CN(CCc3c([nH]c4ccccc34)[C@@](C(=O)OC)(c3cc4c(cc3OC)N(C)[C@H]3[C@@](O)(C(=O)OC)[C@H](OC(C)=O)[C@]5(CC)C=CCN6CC[C@]43[C@@H]65)C2)C1`: 5 nM, 60 nM and 6.3 nM.
The matching figures for `CC[C@]1(NC(=O)C2CCNCC2)C[C@H]2CN(CCc3c([nH]c4ccccc34)[C@@](C(=O)OC)(c3cc4c(cc3OC)N(C)[C@H]3[C@@](O)(C(=O)OC)[C@H](OC(C)=O)[C@]5(CC)C=CCN6CC[C@]43[C@@H]65)C2)C1`: 4200 nM, more than 10000 nM and more than 10000 nM.
Take `CC[C@]1(NC(=O)c2nc3ccccc3o2)C[C@H]2CN(CCc3c([nH]c4ccccc34)[C@@](C(=O)OC)(c3cc4c(cc3OC)N(C)[C@H]3[C@@](O)(C(=O)OC)[C@H](OC(C)=O)[C@]5(CC)C=CCN6CC[C@]43[C@@H]65)C2)C1`: the IC50 was 60 nM in the experiment on L1210, 190 nM in experiment [1] and 60 nM with HCT-116.
As for `CC[C@]1(NS(=O)(=O)c2ccc(C)cc2)C[C@H]2CN(CCc3c([nH]c4ccccc34)[C@@](C(=O)OC)(c3cc4c(cc3OC)N(C)[C@H]3[C@@](O)(C(=O)OC)[C@H](OC(C)=O)[C@]5(CC)C=CCN6CC[C@]43[C@@H]65)C2)C1`, the results for the IC50 (with L1210; in experiment [1]; with HCT-116) were 40 nM, 330 nM and 30 nM, respectively.
In the same order, the values of `CC[C@]1(NC(=O)c2cocn2)C[C@H]2CN(CCc3c([nH]c4ccccc34)[C@@](C(=O)OC)(c3cc4c(cc3OC)N(C)[C@H]3[C@@](O)(C(=O)OC)[C@H](OC(C)=O)[C@]5(CC)C=CCN6CC[C@]43[C@@H]65)C2)C1` are 4.5 nM, 90 nM and 4 nM.
On to `CCCCCC(=O)N[C@@]1(CC)C[C@H]2CN(CCc3c([nH]c4ccccc34)[C@@](C(=O)OC)(c3cc4c(cc3OC)N(C)[C@H]3[C@@](O)(C(=O)OC)[C@H](OC(C)=O)[C@]5(CC)C=CCN6CC[C@]43[C@@H]65)C2)C1`, for which the IC50 in the experiment on L1210 worked out at 55 nM; in experiment [1] it was 450 nM; with HCT-116 it was 40 nM.
In the same order, the values of `CC[C@]1(O)C[C@H]2CN(CCc3c([nH]c4ccc(F)cc34)[C@@](C(=O)OC)(c3cc4c(cc3OC)N(C)[C@H]3[C@@](O)(C(=O)OC)[C@H](OC(C)=O)[C@]5(CC)C=CCN6CC[C@]43[C@@H]65)C2)C1` are 0.6 nM, 30 nM and 0.7 nM.
As to `CC[C@]1(NC(=O)c2ccc(-c3ccccc3)cc2)C[C@H]2CN(CCc3c([nH]c4ccccc34)[C@@](C(=O)OC)(c3cc4c(cc3OC)N(C)[C@H]3[C@@](O)(C(=O)OC)[C@H](OC(C)=O)[C@]5(CC)C=CCN6CC[C@]43[C@@H]65)C2)C1`, the IC50 with L1210 stood at 5.5 nM; in experiment [1], 60 nM; with HCT-116 it was 5.4 nM.
The matching figures for `CC[C@]1(NC(=O)c2ccc(C(C)(C)C)cc2)C[C@H]2CN(CCc3c([nH]c4ccccc34)[C@@](C(=O)OC)(c3cc4c(cc3OC)N(C)[C@H]3[C@@](O)(C(=O)OC)[C@H](OC(C)=O)[C@]5(CC)C=CCN6CC[C@]43[C@@H]65)C2)C1`: 0.6 nM, 55 nM and 1.9 nM.
In the same order, the values of `CC[C@]1(NC(=O)c2ccc(F)cc2)C[C@H]2CN(CCc3c([nH]c4ccccc34)[C@@](C(=O)OC)(c3cc4c(cc3OC)N(C)[C@H]3[C@@](O)(C(=O)OC)[C@H](OC(C)=O)[C@]5(CC)C=CCN6CC[C@]43[C@@H]65)C2)C1` are 1.8 nM, 25 nM and 1.4 nM.
On to `CC[C@]1(NC(=O)c2ccc3cc(OC)ccc3c2)C[C@H]2CN(CCc3c([nH]c4ccccc34)[C@@](C(=O)OC)(c3cc4c(cc3OC)N(C)[C@H]3[C@@](O)(C(=O)OC)[C@H](OC(C)=O)[C@]5(CC)C=CCN6CC[C@]43[C@@H]65)C2)C1`, for which the IC50 in the experiment on L1210 amounted to 2.5 nM; in experiment [1], 20 nM; in the experiment with HCT-116 it was 3.5 nM.
The matching figures for `CC[C@]1(NC(=O)c2cnc3ccccc3n2)C[C@H]2CN(CCc3c([nH]c4ccccc34)[C@@](C(=O)OC)(c3cc4c(cc3OC)N(C)[C@H]3[C@@](O)(C(=O)OC)[C@H](OC(C)=O)[C@]5(CC)C=CCN6CC[C@]43[C@@H]65)C2)C1`: 6.2 nM, 60 nM and 5.9 nM.
Consider `CC[C@]1(NC(=O)c2ccsc2)C[C@H]2CN(CCc3c([nH]c4ccccc34)[C@@](C(=O)OC)(c3cc4c(cc3OC)N(C)[C@H]3[C@@](O)(C(=O)OC)[C@H](OC(C)=O)[C@]5(CC)C=CCN6CC[C@]43[C@@H]65)C2)C1`, for which the IC50 in the experiment with L1210 came to 0.5 nM; in experiment [1] it was 7.7 nM; in the experiment on HCT-116 it was 0.7 nM.
The matching figures for `CC[C@]1(NS(=O)(=O)c2ccc3ccccc3c2)C[C@H]2CN(CCc3c([nH]c4ccccc34)[C@@](C(=O)OC)(c3cc4c(cc3OC)N(C)[C@H]3[C@@](O)(C(=O)OC)[C@H](OC(C)=O)[C@]5(CC)C=CCN6CC[C@]43[C@@H]65)C2)C1`: 50 nM, 440 nM and 60 nM.
In the same order, the values of `CC[C@]1(NC(=O)c2ccc(OC)c(F)c2)C[C@H]2CN(CCc3c([nH]c4ccccc34)[C@@](C(=O)OC)(c3cc4c(cc3OC)N(C)[C@H]3[C@@](O)(C(=O)OC)[C@H](OC(C)=O)[C@]5(CC)C=CCN6CC[C@]43[C@@H]65)C2)C1` are 0.6 nM, 30 nM and 0.6 nM.
`CC[C@]1(NC(=O)c2ccco2)C[C@H]2CN(CCc3c([nH]c4ccccc34)[C@@](C(=O)OC)(c3cc4c(cc3OC)N(C)[C@H]3[C@@](O)(C(=O)OC)[C@H](OC(C)=O)[C@]5(CC)C=CCN6CC[C@]43[C@@H]65)C2)C1`: the IC50 with L1210 stood at 0.7 nM; in experiment [1] it was 12 nM; in the experiment on HCT-116, 0.7 nM.
Take `CCc1cc(CC)cc(C(=O)N[C@@]2(CC)C[C@H]3CN(CCc4c([nH]c5ccccc45)[C@@](C(=O)OC)(c4cc5c(cc4OC)N(C)[C@H]4[C@@](O)(C(=O)OC)[C@H](OC(C)=O)[C@]6(CC)C=CCN7CC[C@]54[C@@H]76)C3)C2)c1`: the IC50 came to 4.2 nM with L1210, 66 nM in experiment [1] and 6.4 nM in the experiment with HCT-116.
The matching figures for `CC[C@]1(NC(=O)C2CCOCC2)C[C@H]2CN(CCc3c([nH]c4ccccc34)[C@@](C(=O)OC)(c3cc4c(cc3OC)N(C)[C@H]3[C@@](O)(C(=O)OC)[C@H](OC(C)=O)[C@]5(CC)C=CCN6CC[C@]43[C@@H]65)C2)C1`: 70 nM, 3500 nM and 35 nM.
In the same order, the values of `CC[C@]1(NC(=O)c2ccc3sccc3c2)C[C@H]2CN(CCc3c([nH]c4ccccc34)[C@@](C(=O)OC)(c3cc4c(cc3OC)N(C)[C@H]3[C@@](O)(C(=O)OC)[C@H](OC(C)=O)[C@]5(CC)C=CCN6CC[C@]43[C@@H]65)C2)C1` are 4.2 nM, 16 nM and 4.9 nM.
In the same order, the values of `CC[C@]1(NC(=O)c2ccc(N)cc2)C[C@H]2CN(CCc3c([nH]c4ccccc34)[C@@](C(=O)OC)(c3cc4c(cc3OC)N(C)[C@H]3[C@@](O)(C(=O)OC)[C@H](OC(C)=O)[C@]5(CC)C=CCN6CC[C@]43[C@@H]65)C2)C1` are 0.4 nM, 4.8 nM and 0.4 nM.
